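Interpolation was linear, between the two tested concentrations surrounding the appropriate level; five concentrations were tested over 48 hours in 96-well plates. GI50 marks 50% less growth. TGI: total growth inhibition.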

From PubChem BioAssay (NCI) come the findings set out here.

The test system of this assay is MDA-MB-468 breast. Put plainly: NCI anticancer screen, dose series, 48 h.
Consider `Nc1nc(-c2ccc(F)cc2)c(-c2ccc3ncccc3n2)s1`, for which the TGI was greater than 25 µM.

As to `O=C(/C=C/c1cc([N+](=O)[O-])ccc1Cl)c1ccccc1`, the GI50 is 8.46 µM and the TGI came out at 22.1 µM. Taken in the same sequence, the figures for `CN(CC(=O)N(Cc1ccc(C2CCCCC2)cc1)c1ccc(C(=O)O)c(O)c1)S(=O)(=O)c1c(F)c(F)c(F)c(F)c1F` were 1.76 µM and 3.76 µM. Taken in the same sequence, the figures for `CN1c2ccccc2C(C)(C)C12C=Cc1cc(O)ccc1O2` (configuration not stated) were 3.46 µM and 16.7 µM. For the compound `C[C@@H](CO)[C@@H]1CCC=C2CC[C@]3(C)[C@H](CC[C@@H]4[C@@]5(C)CCCNC(C)(C)[C@@H]5CC[C@]43C)[C@H]21`, the GI50 is 1.8 µM and the TGI was found to be 3.4 µM. For `COc1ccc(OC)c(/C=C(/C)[N+](=O)[O-])c1` the same measures were 1.27 µM and 2.68 µM. With `Oc1[nH]c2ccc(Cl)cc2c1/C=c1/ccc2c(c1)N=C(c1ccc(F)cc1)N=2`, the GI50 was 2.02 µM and the TGI was 3.57 µM. For `COc1cc(/C=C/C(=O)c2ccc(NC(=O)CN3CCN(c4cc5c(cc4F)c(=O)c(C(=O)O)cn5C4CC4)CC3)cc2)cc(OC)c1OC`, the GI50 was 0.358 µM. In the case of `CC[C@@H](C(=O)[C@@H](C)[C@@H](O)[C@H](C)[C@@H]1O[C@@H]([C@@H](CC)C(=O)N(CC)CC)CC[C@@H]1C)C1O[C@]2(C=CC(=O)[C@]3(CC[C@@](C)([C@H]4CC[C@](O)(CC)[C@H](C)O4)O3)O2)[C@H](C)C[C@@H]1C` (some centres not stated), the GI50 was 0.943 µM and the TGI is 3.19 µM. For `COc1cc(Nc2ccnc(NCCCNc3ccnc4cc(Cl)ccc34)n2)cc(OC)c1` the same measures were 1.49 µM and 3.18 µM. Taken in the same sequence, the figures for `CCCCCCCCCCCCCC[n+]1ccc2c(C)c3c(c(C)c2c1)c1cc(O)ccc1n3CC` were 0.176 µM and 0.654 µM.

In the case of `Cc1cccc2c(=O)c3c(sc12)c(NCCNCCO)nc1ccccc13`, the GI50 is 1.09 µM and the TGI was 2.5 µM. Taken in the same sequence, the figures for `Nc1nc(-c2ccccc2)nc(N)c1N=O` were 1.75 µM and 5.7 µM.

Take `COc1ccc(Cn2cc3c(c2-c2ccc(OC)cc2)CCc2cnoc2-3)cc1`: the GI50 was 0.254 µM and the TGI stood at 0.809 µM.

On to `Cc1cc(Cl)ccc1NC(=O)c1cc2ccccc2cc1O`, for which the GI50 is 1.78 µM and the TGI was found to be 7.42 µM. Regarding `O=C1/C(=C/c2ccc(Cl)cc2)N=C(c2ccccc2)N1CCc1cccs1`, the GI50 was 13.7 µM and the TGI turned out to be 98.2 µM. Regarding `COc1ccc(Nc2c3ccccc3nc3ccccc23)cc1`, the GI50 was 0.547 µM and the TGI was 4.53 µM.

As to `O=C(Nc1ccc2ncnc(Nc3ccc(Oc4cccc(F)c4)c(Cl)c3)c2c1)c1ccc(CNCCO)cc1`, the GI50 was 0.561 µM and the TGI came to 2.02 µM. Regarding `CCNC(=O)c1cc2c(-c3cc(C(C)(C)O)ccc3Oc3c(C)cc(F)cc3C)cn(C)c(=O)c2[nH]1`, the GI50 was 1.17 µM and the TGI was 7.45 µM. Taken in the same sequence, the figures for `COc1cc2c(cc1Nc1nc(Nc3ccsc3C(N)=O)c3cc[nH]c3n1)N(C(=O)CN(C)C)CCC2(C)C` were 0.471 µM and 2.6 µM. For `CCC1CCc2nc3sc(C(=O)Nc4cccc(F)c4)c(N)c3cc2C1` (configuration not stated) the same measures were 0.471 µM and greater than 100 µM. Taken in the same sequence, the figures for `Cc1ccc2ccc3ccc(C)nc3c2n1.Cc1ccc2ccc3ccc(C)nc3c2n1.Oc1c(Cl)cc(Cl)c2ccc(CN3CCCCC3)nc12.[Ru]` were 0.248 µM and 0.875 µM. For the compound `NC(=O)c1cc(-c2ccc(F)cc2)cc(-c2ccncc2)c1N`, the GI50 is 8.17 µM and the TGI was greater than 25 µM. For `CC1(C)[C@@H](O[C@@H]2OC[C@@H](O[C@@H]3O[C@H](CO)[C@@H](O)[C@H](O)[C@H]3O[C@@H]3OC[C@@H](O)[C@H](O)[C@H]3O)[C@H](O)[C@H]2O[C@@H]2O[C@H](CO)[C@@H](O)[C@H](O)[C@H]2O)CC[C@]2(C)[C@H]3CC[C@]45OC[C@@]6(CC[C@](C)(C=O)C[C@H]64)[C@H](O)C[C@@]5(C)[C@]3(C)CC[C@@H]12` the same measures were 0.941 µM and 1.96 µM. Taken in the same sequence, the figures for `CCCCCCCCCCCC1CCCC(C)N1` (configuration not stated) were 15.5 µM and 31 µM.

For `O=[N+]([O-])c1c(Br)sc(Br)c1[N+](=O)[O-]`, the GI50 was 1.27 µM and the TGI was 2.91 µM. For the compound `Fc1ccc(Nc2nc3nonc3nc2Nc2ccc(F)cc2)cc1`, the GI50 was 0.281 µM and the TGI is 1.46 µM.

Consider `Cc1cc(N(CCNc2ccnc3cc(Cl)ccc23)Cc2ccco2)nc(Cl)n1`, for which the GI50 was 1.5 µM and the TGI worked out at 3.07 µM.

As for `COc1ccc(-c2nc3ccccn3c2/C=C/C(=O)c2cc(OC)c(OC)c(OC)c2)cc1`, the GI50 was 11.9 µM and the TGI was determined as 65.5 µM. Take `O=C(NCc1ccc(Cn2c(=O)sn(-c3ccccc3)c2=O)cc1)OCc1ccc2c(Br)cc(Br)c(O)c2n1`: the GI50 was 0.5 µM and the TGI stood at 2.01 µM. In the case of `NC(=O)c1ccc2nc(-c3ccc(Oc4ccc(Cl)cc4)cc3)[nH]c2c1`, the GI50 was 10.5 µM and the TGI was found to be 29.3 µM. Regarding `CN(C)c1ccc(Nc2cc(-c3cccc(OC(F)(F)F)c3)nc3ccc(N4CCCC4)cc23)cc1`, the GI50 is 2.05 µM and the TGI amounted to 4.38 µM.

Take `Cc1c(COc2cc(OCc3cccc(C#N)c3)c(CN3C[C@H](O)C[C@@H]3C(=O)O)cc2Cl)cccc1-c1ccc2c(c1)OCCO2`: the GI50 is 6.72 µM and the TGI amounted to 20.5 µM.

Regarding `N#CSCC1CC(O)(c2ccccc2)CC(c2ccc(F)cc2)O1` (configuration not stated), the GI50 is 2.25 µM and the TGI was 7.55 µM.

Consider `CC(=O)O[C@]1(C(C)=O)CC[C@H]2[C@@H]3C=C(C)C4=CC(=O)CC[C@]4(C)[C@H]3CC[C@@]21C`, for which the GI50 was 77.7 µM and the TGI is greater than 100 µM. `CC(=Nc1ccccc1)C1=C(O)C(Cc2ccccc2)NC1=O` (configuration not stated): the GI50 was 0.0173 µM and the TGI amounted to 0.0502 µM.

`CN1CCN(c2ccc3nc(-c4ccc5nc(-c6ccc(OCCC(C)(C)C)cc6)[nH]c5c4)[nH]c3c2)CC1`: the GI50 is 1.91 µM and the TGI was determined as 4.13 µM.
